Measured values from US11684598B2, “Use of cannabinoids in the treatment of epilepsy” (priority 2015, dated 2023).
Values joined by “and” are separate entries in the source; they are usually repeats but may differ in a detail not shown here. Equal values may be shown once. Read-outs that look alike come from different tables or passages of the source.

What was measured:
[1] = test system: D. discoideum cell growth; experiment: D. discoideum growth assay; format: cell-based, Dictyostelium discoideum
Method: Wild type (A×2) D. discoideum cells were grown in shaking culture (in HL5 medium) for two days prior to growth assays. Cells (9900 in 495 μl of media) were added to each well of a 24 well plate and 5 μl of cannabinoid in DMSO (or DMSO only) was added to each well to achieve each described concentration (1% final DMSO concentration), and cells were maintained at 22° C. Cells were counted at 72 hours, and then every 24 hours. Quadruplicate repeats were used for each concentration.

[2] = test system: D. discoideum development; experiment: D. discoideum development assay; format: cell-based, Dictyostelium discoideum; settings: 20 μM, 24 h on nitrocellulose filter
Method: Wild type (A×2) D. discoideum cells were grown in HL5 shaking culture for two days prior to development assay. Cells were washed in phosphate buffer (KK2; 20 mM Potassium phosphate buffer, pH 6.1), and 1×10^7 cells were spread onto nitrocellulose filters (Millipore, Cork). Absorbent pads (Millipore, Cork), divided into quarters, were placed in 2 ml culture dishes and soaked with 0.5 ml KK2 containing the cannabinoids at 20 μM. 1 mM Valproic acid was used as a positive control while KK2 containing 1% DMSO was used as a solvent only control. Nitrocellulose filters containing cells were quartered and place upon absorbent pads and maintained in a humid environment at 22° C. for 24 h. Fruiting body morphology was recorded using a dissection microscope and camera.

generalized epilepsy = settings: eight adult patients with generalized epilepsy; cited from earlier work
seizures [3] = settings: mice, after pro-convulsant drugs or an electric current; cited from earlier work
[4] = Toxicokinetics from toxicological studies in dogs, daily oral (gavage) administration; format: in vivo, dog; settings: for Vd/F: read-out: Vz/F
Method: Samples were taken from the jugular vein into lithium heparin. Samples were mixed gently by hand then continuously for at least 2 minutes on automatic mixer and placed in a Kryorack until centrifugation, which was carried out at approximately 4° C. as soon as practicable. The resultant plasma was separated under low light conditions, transferred to uniquely labelled clear glass vials, placed in light proof boxes and frozen immediately at <−50° C.

seizures [5] = settings: 200 mg/day pure CBD, four adult patients; cited from earlier work
seizures [6] = settings: 200 mg/day pure CBD, twelve institutionalized adult patients, open label; cited from earlier work
[7] = CBD 100 mg/kg oral, Day 1, females, Max
[8] = CBD 100 mg/kg oral, Day 1, females, Min
[9] = CBD 100 mg/kg oral, Day 1, females, individual animals (Subjects 115-120)
[10] = CBD 100 mg/kg oral, Day 1, males, Max
[11] = CBD 100 mg/kg oral, Day 1, males, Min
[12] = CBD 100 mg/kg oral, Day 1, males, individual animals (Subjects 15-20)

## C=C(C)[C@@H]1CCC(C)=C[C@H]1c1c(O)cc(CCCCC)cc1O [CBD, Cannabidiol]
[1]; Dictyostelium discoideum, secondary plot of cell density at 144 hours, read-out: growth inhibitory constant (IC50)
  IC50: 1630 nM
[1]; growth over one week
  concentration blocking growth: 20 µM
  concentration significantly inhibiting cell growth (P<0.05): 0.5 µM
[2]
  effect on development (fruiting body morphology): able to aggregate and develop to form mature fruiting bodies
Generalized epilepsy
  reduction of seizures: marked reduction of seizures in 4 of the patients
Seizures [3]
  prevention of seizures: able to prevent seizures in mice
[4]; CBD 100 mg/kg oral, Day 1, females, Geometric Mean
  tl/2: 5.9 h
[4]; [7]
  AUC0-inf: 32800 ng·h/mL
  AUC0-t: 32400 ng·h/mL
  CL/F: 632 mL/min/kg
  Cmax: 3780 ng/mL
  tl/2: 8.4 h
  tmax: 8.0 h
[4]; CBD 100 mg/kg oral, Day 1, females, Mean, N=4
  tl/2: 6.1 h
[4]; CBD 100 mg/kg oral, Day 1, females, Median
  tl/2: 5.7 h
[4]; [8]
  AUC0-inf: 2640 ng·h/mL
  AUC0-t: 2540 ng·h/mL
  CL/F: 50.8 mL/min/kg
  Cmax: 411 ng/mL
  tl/2: 4.5 h
  tmax: 1.0 h
[4]; [9]
  AUC0-inf: 32800 ng·h/mL and 3280 ng·h/mL and 22400 ng·h/mL and 2640 ng·h/mL
  AUC0-t: 31300 ng·h/mL and 3000 ng·h/mL and 20000 ng·h/mL and 22600 ng·h/mL and 2540 ng·h/mL and 32400 ng·h/mL
  CL/F: 50.8 mL/min/kg and 508 mL/min/kg and 74.5 mL/min/kg and 632 mL/min/kg
  Cmax: 3780 ng/mL and 655 ng/mL and 2520 ng/mL and 1900 ng/mL and 411 ng/mL and 3270 ng/mL
  tl/2: 4.7 h and 8.4 h and 6.6 h and 4.5 h
  tmax: 2.0 h and 8.0 h and 1.0 h
[4]; CBD 100 mg/kg oral, Day 1, males, Geometric Mean
  tl/2: 7.0 h
[4]; [10]
  AUC0-inf: 60500 ng·h/mL
  AUC0-t: 51800 ng·h/mL
  CL/F: 82.1 mL/min/kg
  Cmax: 4570 ng/mL
  tl/2: 8.6 h
  tmax: 8.0 h
[4]; CBD 100 mg/kg oral, Day 1, males, Mean, N=5
  tl/2: 7.2 h
[4]; CBD 100 mg/kg oral, Day 1, males, Median
  tl/2: 7.7 h
[4]; [11]
  AUC0-inf: 20300 ng·h/mL
  AUC0-t: 17200 ng·h/mL
  CL/F: 27.5 mL/min/kg
  Cmax: 1400 ng/mL
  tl/2: 5.4 h
[4]; [12]
  AUC0-inf: 55300 ng·h/mL and 60500 ng·h/mL and 20300 ng·h/mL and 31100 ng·h/mL
  AUC0-t: 47300 ng·h/mL and 51800 ng·h/mL and 33000 ng·h/mL and 17200 ng·h/mL and 28700 ng·h/mL and 26400 ng·h/mL
  CL/F: 30.1 mL/min/kg and 27.5 mL/min/kg and 82.1 mL/min/kg and 53.6 mL/min/kg
  Cmax: 3960 ng/mL and 4570 ng/mL and 3620 ng/mL and 1400 ng/mL and 2430 ng/mL and 3090 ng/mL
  tl/2: 8.6 h and 7.7 h and 5.4 h and 8.5 h and 5.7 h
  tmax: 8.0 h
[4]; female, dog, plasma, po, 100 mg/kg, CBD 100 mg/kg oral, Day 1, females, Geometric Mean, read-out: AUC0-inf
  AUC0-inf: 8930 ng·h/mL
[4]; female, dog, plasma, po, 100 mg/kg, CBD 100 mg/kg oral, Day 1, females, Geometric Mean, read-out: AUC0-t
  AUC0-t: 12300 ng·h/mL
[4]; female, dog, plasma, po, 100 mg/kg, CBD 100 mg/kg oral, Day 1, females, Geometric Mean, read-out: CL/F
  CL/F: 187 mL/min/kg
[4]; female, dog, plasma, po, 100 mg/kg, CBD 100 mg/kg oral, Day 1, females, Geometric Mean, read-out: Cmax
  Cmax: 1590 ng/mL
[4]; female, dog, plasma, po, 100 mg/kg, CBD 100 mg/kg oral, Day 1, females, Geometric Mean
  Vd/F: 94.8 L/kg
[4]; female, dog, plasma, po, 100 mg/kg, CBD 100 mg/kg oral, Day 1, females, Mean, N=4, read-out: AUC0-inf
  AUC0-inf: 15300 ng·h/mL
[4]; female, dog, plasma, po, 100 mg/kg, CBD 100 mg/kg oral, Day 1, females, Mean, N=4, read-out: CL/F
  CL/F: 316 mL/min/kg
[4]; female, dog, plasma, po, 100 mg/kg, CBD 100 mg/kg oral, Day 1, females, Mean, N=4
  Vd/F: 169 L/kg
[4]; female, dog, plasma, po, 100 mg/kg, CBD 100 mg/kg oral, Day 1, females, Mean, N=6, read-out: AUC0-t
  AUC0-t: 18600 ng·h/mL
[4]; female, dog, plasma, po, 100 mg/kg, CBD 100 mg/kg oral, Day 1, females, Mean, N=6, read-out: Cmax
  Cmax: 2090 ng/mL
[4]; female, dog, plasma, po, 100 mg/kg, CBD 100 mg/kg oral, Day 1, females, Median, read-out: AUC0-inf
  AUC0-inf: 12800 ng·h/mL
[4]; female, dog, plasma, po, 100 mg/kg, CBD 100 mg/kg oral, Day 1, females, Median, read-out: AUC0-t
  AUC0-t: 21300 ng·h/mL
[4]; female, dog, plasma, po, 100 mg/kg, CBD 100 mg/kg oral, Day 1, females, Median, read-out: CL/F
  CL/F: 291 mL/min/kg
[4]; female, dog, plasma, po, 100 mg/kg, CBD 100 mg/kg oral, Day 1, females, Median, read-out: Cmax
  Cmax: 2210 ng/mL
[4]; female, dog, plasma, po, 100 mg/kg, CBD 100 mg/kg oral, Day 1, females, Median
  Vd/F: 145 L/kg
[4]; female, dog, plasma, po, 100 mg/kg, CBD 100 mg/kg oral, Day 1, females, Median, read-out: tmax
  tmax: 4 h
[4]; female, dog, plasma, po, 100 mg/kg, comparative Table 11, females, 100 mg/kg, Day 1, mean, read-out: AUC0-t
  AUC0-t: 18600 ng·h/mL
[4]; female, dog, plasma, po, 100 mg/kg, comparative Table 11, females, 100 mg/kg, Day 1, mean, read-out: Cmax
  Cmax: 2090 ng/mL
[4]; male, dog, plasma, po, 100 mg/kg, CBD 100 mg/kg oral, Day 1, males, Geometric Mean, read-out: AUC0-inf
  AUC0-inf: 37600 ng·h/mL
[4]; male, dog, plasma, po, 100 mg/kg, CBD 100 mg/kg oral, Day 1, males, Geometric Mean, read-out: AUC0-t
  AUC0-t: 31900 ng·h/mL
[4]; male, dog, plasma, po, 100 mg/kg, CBD 100 mg/kg oral, Day 1, males, Geometric Mean, read-out: CL/F
  CL/F: 44.4 mL/min/kg
[4]; male, dog, plasma, po, 100 mg/kg, CBD 100 mg/kg oral, Day 1, males, Geometric Mean, read-out: Cmax
  Cmax: 2970 ng/mL
[4]; male, dog, plasma, po, 100 mg/kg, CBD 100 mg/kg oral, Day 1, males, Geometric Mean
  Vd/F: 27 L/kg
[4]; male, dog, plasma, po, 100 mg/kg, CBD 100 mg/kg oral, Day 1, males, Mean, N=5, read-out: AUC0-inf
  AUC0-inf: 40500 ng·h/mL
[4]; male, dog, plasma, po, 100 mg/kg, CBD 100 mg/kg oral, Day 1, males, Mean, N=5, read-out: CL/F
  CL/F: 48.1 mL/min/kg
[4]; male, dog, plasma, po, 100 mg/kg, CBD 100 mg/kg oral, Day 1, males, Mean, N=5
  Vd/F: 29.9 L/kg
[4]; male, dog, plasma, po, 100 mg/kg, CBD 100 mg/kg oral, Day 1, males, Mean, N=6, read-out: AUC0-t
  AUC0-t: 34100 ng·h/mL
[4]; male, dog, plasma, po, 100 mg/kg, CBD 100 mg/kg oral, Day 1, males, Mean, N=6, read-out: Cmax
  Cmax: 3180 ng/mL
[4]; male, dog, plasma, po, 100 mg/kg, CBD 100 mg/kg oral, Day 1, males, Median, read-out: AUC0-inf
  AUC0-inf: 35400 ng·h/mL
[4]; male, dog, plasma, po, 100 mg/kg, CBD 100 mg/kg oral, Day 1, males, Median, read-out: AUC0-t
  AUC0-t: 30800 ng·h/mL
[4]; male, dog, plasma, po, 100 mg/kg, CBD 100 mg/kg oral, Day 1, males, Median, read-out: CL/F
  CL/F: 47.1 mL/min/kg
[4]; male, dog, plasma, po, 100 mg/kg, CBD 100 mg/kg oral, Day 1, males, Median, read-out: Cmax
  Cmax: 3360 ng/mL
[4]; male, dog, plasma, po, 100 mg/kg, CBD 100 mg/kg oral, Day 1, males, Median
  Vd/F: 22.3 L/kg
[4]; male, dog, plasma, po, 100 mg/kg, CBD 100 mg/kg oral, Day 1, males, Median, read-out: tmax
  tmax: 6 h
[4]; male, dog, plasma, po, 100 mg/kg, CBD 100 mg/kg oral, Day 1, males, individual animals (Subjects 15-20), read-out: tmax
  tmax: 6 h
[4]; male, dog, plasma, po, 100 mg/kg, comparative Table 10, males, 100 mg/kg, Day 1, mean, read-out: AUC0-t
  AUC0-t: 34100 ng·h/mL
[4]; male, dog, plasma, po, 100 mg/kg, comparative Table 10, males, 100 mg/kg, Day 1, mean, read-out: Cmax
  Cmax: 3180 ng/mL
Seizures [5]
  seizure freedom: two of the four patients became seizure free
Seizures [6]
  control of seizures: ineffective in controlling seizures
